One block for each molecule: values may come before it.
How the values were obtained:
Assay type in all cases: physicochemical
[1] = UV spectrum as a function of pH (phenol deprotonation pKa); details: fit of UV absorbance vs pH
Method: To probe the speciation of the manganese complexes in solution, pH titrations of 1:1 Mn^2+:ligand were performed using a 1 N NaOH under N2 atmosphere (FIG. 21).
To determine the species that exists in these two pH ranges the UV spectrum as a function of pH was monitored (see FIGS. 22-24).

[2] = T1 relaxivity (r1) by inversion recovery on Bruker mq60 Minispec, 1.4 T, 37° C., TRIS buffer pH 7.4; details: pH 7.4, 37° C., 1.4 Tesla
Method: (§1) Liquid chromatography-electrospray mass spectrometry (LC-MS) was performed using an Agilent 1100 Series apparatus with an LC/MSD trap and Daly conversion dynode detector with UV detection at 220, 254 and 280 nm. The methods used on this system are as follows: (a) Luna C18 column (100×2 mm); eluent A: H2O/0.1% formic acid, B: MeCN/0.1% formic acid; gradient: 5% B to 95% B over 9 minutes; flow rate 0.8 mL/min (used for characterization of organic compounds), and (b) Kromasil C18 column (250×4.6 mm); eluent C: 95% MeCN/5% 10 mM ammonium acetate, D: 10 mM ammonium acetate; gradient 5% C to 8% C over 14 minutes; flow rate 0.8 ml/min (used for characterization of manganese complexes). Reversed-phase semipreparative purification was performed on a Rainin Dynamax HPLC system with UV detection at 254 nm using a Polaris C18 column. The method used for purification is as follows: The mobile phase A was 50 mM ammonium acetate buffer, pH 6.5 and mobile phase B was a mixture of 5% 50 mM ammonium acetate buffer, pH 6.5/95% MeCN. Starting from 5% B, the fraction of B increased to 8% over 23 minutes. The column was washed with 100% B for 2 minutes and then ramped to 5% B. The system was re-equilibrated at 5% B for 3 minutes. Relaxivity measurements were performed on a Bruker mq60 Minispec at 1.4 T and 37° C. Manganese concentrations were determined using an Agilent 7500a ICP-MS system. All samples were diluted with 0.1% Triton X-100 in 5% nitric acid containing 20 ppb of Lu (as internal standard). The ratio of Mn (54.94)/Lu(174.97) was used to quantify the manganese concentration. A linear calibration curve ranging from 0.1 ppb to 200 ppb was generated daily for the quantification. UV-Vis spectra were recorded on a SpectraMax M2 spectrophotometer using quartz cuvette with a 1 cm path length. Cyclic voltammetry of Mn^IIHBET, Mn^IIEDTA and Mn^IIIHBET was recorded using a Nuvant EZstat pro potentiostat in TRIS buffer (pH=7.4), containing 0.5M KNO3 as supporting electrolyte, at 100 mVs-1 scan rate. Glassy carbon was used as the working electrode, Ag/AgCl served as the reference electrode and Pt wire was used as the auxiliary electrode. The K4FeCN6/K3FeCN6 couple was used as the internal standard.
T1 was measured with an inversion recovery pulse sequence taking 10 inversion times. Relaxivity was determined from the slope of a plot of 1/T1 vs. concentration of in TRIS buffer, pH=7.4 at 37° C. The concentration of manganese in each stock solution was determined using ICP-MS.
All chemicals and solvents were purchased commercially and used without further purification. NMR spectra were recorded on either a 500 MHz or 400 MHz Varian spectrometers. Chemical shifts are reported in δ (ppm). For ^1H and ^13C NMR spectra, the residual solvent peaks were used as internal reference, except for the ^13C NMR of the ligand where tertiary-butanol was used as the internal reference. Liquid chromatography-electrospray mass spectrometry (LC-MS) was performed using an Agilent 1100 Series apparatus with an LC/MSD trap and Daly conversion dynode detector with UV detection at 220, 254 and 280 nm. The methods used on this system are as follows: (a) Luna C18 column (100×2 mm); eluent A: H2O/0.1% formic acid, B: MeCN/0.1% formic acid; gradient: 5% B to 95% B over 9 minutes; flow rate 0.8 mL/min (used for characterization of organic compounds), and (b) Kromasil C18 column (250×4.6 mm); eluent C: 95% MeCN/5% 10 mM ammonium acetate, D: 10 mM ammonium acetate; gradient 5% C to 8% C over 14 minutes; flow rate 0.8 ml/min (used for characterization of manganese complexes). Reversed-phase semipreparative purification was performed on the Rainin Dynamax HPLC system with UV detection at 254 nm using a Polaris C18 column. The method used for purification is as follows: The mobile phase A was 50 mM ammonium acetate buffer, pH 6.5 and mobile phase B was a mixture of 5% 50 mM ammonium acetate buffer, pH 6.5/95% MeCN. Starting from 5% B, the fraction of B increased to 8% over 23 minutes. […]

[3] = Cyclic voltammetry of the Mn(III)/Mn(II) redox couple; details: for Half-cell potential vs. normal hydrogen electrode (NHE): pH 7.4, vs. NHE
Method: Potentials are vs. K4Fe(CN)6/K3Fe(CN)6; and in (b), a Cottrell plot of the Mn^2+/Mn^3+ couple—ia, (decreasing line) and ic (increasing line) vs. √v, where v=scan rate.
as §1

[4] = Relaxivity at different field strengths in pH 7.4 HEPES buffer; details: 37° C.
Method: The relaxivities of the compounds for Formulas (XI) and (XII) were determined at different field strengths at 37° C. in pH 7.4 HEPES buffer. The relaxivity was obtained from the slope of a plot of 1/T1 vs. [Mn] for different Mn concentrations. Since Formula (XI) contains 6 Mn per molecule, the ionic (per Mn) and molecular (per molecule) relaxivities are given below.

pKa for ionization of the phenol [1]: 7.95 | r1 (relaxivity of manganese complexes) [2]: 3.26 mM⁻¹ s⁻¹
Molecule: O=C([O-])CN(CC(=O)[O-])C1CCCCC1N(CC(=O)[O-])Cc1ccccc1[O-].[Mn+2].[Na+].[Na+] (racemic) [Compound 20, Na2[Mn^IIcycHBET]]

Half-cell potential vs. normal hydrogen electrode (NHE) [3]: 365 mV | r1 (relaxivity of manganese complexes) [2]: 1.56 mM⁻¹ s⁻¹
Molecule: O=C([O-])CN(CC(=O)[O-])C1CCCCC1N(CC(=O)[O-])Cc1ccccc1[O-].[Mn+3].[Na+] (racemic) [Compound 21, Na[Mn^IIIcycHBET]]

r1 (relaxivity of manganese complexes) [2]: 2.30 mM⁻¹ s⁻¹
Molecule: O=C([O-])CN(CC(=O)[O-])C1CCCCC1N(CC(=O)[O-])Cc1cc([N+](=O)[O-])ccc1[O-].[Mn+2].[Na+].[Na+] (racemic) [Compound 30, Na2[Mn^IIcycHBET-NO2)]]

Half-cell potential vs. normal hydrogen electrode (NHE) [3]: 488 mV
Molecule: O=C([O-])CN(CC(=O)[O-])C1CCCCC1N(CC(=O)[O-])Cc1cc([N+](=O)[O-])ccc1[O-].[Mn+3].[Na+] (racemic) [Compound 31, Na[Mn^IIIcycHBET-NO2]]

Half-cell potential vs. normal hydrogen electrode (NHE) [3]: 344 mV | pKa for ionization of the phenol [1]: 7.91 | r1 (relaxivity of manganese complexes) [2]: 3.11 mM⁻¹ s⁻¹
Molecule: COc1ccc([O-])c(CN(CCN(CC(=O)[O-])CC(=O)[O-])CC(=O)[O-])c1.[Mn+2].[Na+].[Na+] [Compound 9, Na2[Mn^IIHBET-OMe]]

pKa for ionization of the phenol [1]: 4.84 | r1 (relaxivity of manganese complexes) [2]: 2.28 mM⁻¹ s⁻¹
Molecule: O=C([O-])CN(CCN(CC(=O)[O-])Cc1cc([N+](=O)[O-])ccc1[O-])CC(=O)[O-].[Mn+2].[Na+].[Na+] [Compound 13, Na2[Mn^IIHBET-NO2]]

Half-cell potential vs. normal hydrogen electrode (NHE) [3]: 476 mV | r1 (relaxivity of manganese complexes) [2]: 0.34 mM⁻¹ s⁻¹
Molecule: O=C([O-])CN(CCN(CC(=O)[O-])Cc1cc([N+](=O)[O-])ccc1[O-])CC(=O)[O-].[Mn+3].[Na+] [Compound 14, Na[Mn^IIIHBET-NO2]]

half-cell potentials (Mn^II/Mn^III) ([3]; irreversible oxidation / quasi-reversible reduction peaks, TRIS buffer pH 7.4): 0.016 V
Molecule: O=C([O-])CN(CCN(CC(=O)[O-])Cc1ccccc1[O-])Cc1ccccc1[O-].[Mn+3] [Mn^III-HBED, reference compound]

Relaxivity r1 at 0.47T (per Mn) ([4]; 0.47T, ionic (per Mn)): 9.07 mM⁻¹ s⁻¹ | Relaxivity r1 at 0.47T per molecule ([4]; 0.47T, molecular (per molecule, 6 Mn)): 54.4 mM⁻¹ s⁻¹ | Relaxivity r1 at 1.4T (per Mn) ([4]; 1.4T, ionic (per Mn)): 9.28 mM⁻¹ s⁻¹ | Relaxivity r1 at 1.4T per molecule ([4]; 1.4T, molecular (per molecule, 6 Mn)): 55.7 mM⁻¹ s⁻¹ | Relaxivity r1 at 4.7T (per Mn) ([4]; 4.7T, ionic (per Mn)): 6.54 mM⁻¹ s⁻¹ | Relaxivity r1 at 4.7T per molecule ([4]; 4.7T, molecular (per molecule, 6 Mn)): 39.2 mM⁻¹ s⁻¹ | Relaxivity r1 at 9.4T (per Mn) ([4]; 9.4T, ionic (per Mn)): 4.94 mM⁻¹ s⁻¹ | Relaxivity r1 at 9.4T per molecule ([4]; 9.4T, molecular (per molecule, 6 Mn)): 29.6 mM⁻¹ s⁻¹ | Relaxivity r1 at 11.7T (per Mn) ([4]; 11.7T, ionic (per Mn)): 3.57 mM⁻¹ s⁻¹ | Relaxivity r1 at 11.7T per molecule ([4]; 11.7T, molecular (per molecule, 6 Mn)): 21.4 mM⁻¹ s⁻¹
Molecule: Mn6[N3P3-(TyOH-EDTA)6] [Compound 55]

Relaxivity r1 at 0.47T (per Mn) ([4]; 0.47T, ionic (per Mn)): 3.60 mM⁻¹ s⁻¹ | Relaxivity r1 at 1.4T (per Mn) ([4]; 1.4T, ionic (per Mn)): 2.80 mM⁻¹ s⁻¹ | Relaxivity r1 at 9.4T (per Mn) ([4]; 9.4T, ionic (per Mn)): 3.65 mM⁻¹ s⁻¹ | Relaxivity r1 at 11.7T (per Mn) ([4]; 11.7T, ionic (per Mn)): 3.05 mM⁻¹ s⁻¹
Molecule: Na[Mn(TyOH-EDTA)] [Compound 52]

— patent US20150336996A1, “MANGANESE-BASED MAGNETIC RESONANCE CONTRAST AGENTS” (THE GENERAL HOSPITAL CORPORATION, priority 2013, published 2015)
